{"source": "patent US12427134B2", "about": "“Methods of reducing the risk of cardiovascular events in a subject with atrial fibrillation and/or atrial flutter” (priority 2019, dated 2025)", "system": "hypertriglyceridemic patients with cardiovascular disease or at high risk for cardiovascular disease", "assay": "REDUCE-IT: treatment-emergent adverse events and serious adverse events (safety population)", "key": {"[1]": {"conditions": "patients taking ezetimibe at baseline"}}, "experimental": "Specification of Variables and Procedures: Safety assessments included adverse events, clinical laboratory measurements (chemistry, hematology), 12-lead ECGs, vital signs (systolic and diastolic blood pressure, heart rate, respiratory rate, and body temperature), weight, waist circumference, and physical examinations as per Study Procedures in Table 1. […] All laboratory test results were evaluated by the investigator as to their clinical significance. Any observations at physical examinations or laboratory values considered by the investigator to be clinically significant were considered an adverse event.\nAn adverse event can therefore be any unfavorable and/or unintended sign (including an abnormal laboratory finding), symptom, or disease temporally associated with the use of an investigational medication product, whether or not related to the investigational medication product. All adverse events, including observed or volunteered problems, complaints, or symptoms, were recorded on the appropriate CRF. Each adverse event was evaluated for duration, intensity, and causal relationship with the study medication or other factors.\nAdverse events, which included clinical laboratory test variables, were monitored from the time of informed consent until study participation was complete. Patients were instructed to report any adverse event that they experienced to the investigator. Beginning with Visit 2, investigators assessed for adverse events at each visit and recorded the event on the appropriate adverse event CRF.\nCausality Assessment: The relationship of an adverse event to the administration of the study drug was assessed according to the following definitions: • No (unrelated, not related, no relation)—The time course between the administration of study drug and the occurrence or worsening of the adverse event rules out a causal relationship and another cause (concomitant drugs, therapies, complications, etc.) is suspected. • Yes (related, probably related, possibly related)—The time course between the administration of study drug and the occurrence or worsening of the adverse event is consistent with a causal relationship and no other cause (concomitant drugs, therapies, complications, etc.) can be identified.\nSerious Adverse Events: A serious adverse event (SAE) is defined as an adverse event that meets any of the following criteria: • Results in death; • Is life-threatening—The term “life-threatening” in the definition of “serious” refers to an event in which the patient was at risk of death at the time of the event. […] Important medical events that may not result in death, be life threatening, or require hospitalization were considered an SAE when, based upon appropriate medical judgment, they may have jeopardized the patient and may have required medical or surgical intervention to prevent one of the outcomes listed above.\nAnalysis of Safety: All analyses of safety were conducted on the safety population, which was defined as all randomized patients. The safety assessment was based on the frequency of adverse events, physical exams, vital signs and safety laboratory tests. AEs with new onset during the study between the initiation of study drug and 30 days after the last dose of study drug for each patient was considered treatment-emergent (TEAEs). This included any AE with onset prior to initiation of study drug and increased severity after the treatment initiation.\nThis included overall incidence rates (regardless of severity and relationship to study drug), and incidence rates for moderate or severe adverse events. A summary of SAEs and adverse events leading to early discontinuation (for ≥30 days) were presented through data listings. Patients who restarted study drug were included in the summary of AEs leading to discontinuation."}
{"smiles": "CC/C=C\\C/C=C\\C/C=C\\C/C=C\\C/C=C\\CCCC(=O)OCC", "note": "[AMR101, eicosapentaenoic acid ethyl ester]", "values": [{"measurement": "Study drug-related TEAE leading to study drug withdrawal - Gastroesophageal reflux disease, % patients", "setting": "Safety population, N = 4089", "result": "(0.1) %"}, {"measurement": "Study drug-related TEAE leading to study drug withdrawal - Gastroesophageal reflux disease, n patients", "setting": "Safety population, N = 4089", "result": 5}, {"measurement": "Study drug-related TEAE leading to study drug withdrawal - Gastrointestinal disorders (SOC), % patients", "setting": "Safety population, N = 4089", "result": "(2.4) %"}, {"measurement": "Study drug-related TEAE leading to study drug withdrawal - Gastrointestinal disorders (SOC), n patients", "setting": "Safety population, N = 4089", "result": 97}, {"measurement": "Study drug-related TEAE leading to study drug withdrawal - Hypersensitivity, % patients", "setting": "Safety population, N = 4089", "result": "(0.1) %"}, {"measurement": "Study drug-related TEAE leading to study drug withdrawal - Hypersensitivity, n patients", "setting": "Safety population, N = 4089", "result": 3}, {"measurement": "Study drug-related TEAE leading to study drug withdrawal - Immune system disorders (SOC), % patients", "setting": "Safety population, N = 4089", "result": "(0.1) %"}, {"measurement": "Study drug-related TEAE leading to study drug withdrawal - Immune system disorders (SOC), n patients", "setting": "Safety population, N = 4089", "result": 4}, {"measurement": "Study drug-related TEAE leading to study drug withdrawal - Muscle spasms, % patients", "setting": "Safety population, N = 4089", "result": "(0.0) %"}, {"measurement": "Study drug-related TEAE leading to study drug withdrawal - Muscle spasms, n patients", "setting": "Safety population, N = 4089", "result": 0}, {"measurement": "Study drug-related TEAE leading to study drug withdrawal - Musculoskeletal and connective tissue disorders (SOC), % patients", "setting": "Safety population, N = 4089", "result": "(0.3) %"}, {"measurement": "Study drug-related TEAE leading to study drug withdrawal - Musculoskeletal and connective tissue disorders (SOC), n patients", "setting": "Safety population, N = 4089", "result": 13}, {"measurement": "Study drug-related TEAE leading to study drug withdrawal - Nausea, % patients", "setting": "Safety population, N = 4089", "result": "(0.4) %"}, {"measurement": "Study drug-related TEAE leading to study drug withdrawal - Nausea, n patients", "setting": "Safety population, N = 4089", "result": 16}, {"measurement": "Study drug-related TEAE leading to study drug withdrawal - Pruritus generalized, % patients", "setting": "Safety population, N = 4089", "result": "(0.1) %"}, {"measurement": "Study drug-related TEAE leading to study drug withdrawal - Pruritus generalized, n patients", "setting": "Safety population, N = 4089", "result": 3}, {"measurement": "Study drug-related TEAE leading to study drug withdrawal - Pruritus, % patients", "setting": "Safety population, N = 4089", "result": "(0.0) %"}, {"measurement": "Study drug-related TEAE leading to study drug withdrawal - Pruritus, n patients", "setting": "Safety population, N = 4089", "result": 1}, {"measurement": "Study drug-related TEAE leading to study drug withdrawal - Rash, % patients", "setting": "Safety population, N = 4089", "result": "(0.1) %"}, {"measurement": "Study drug-related TEAE leading to study drug withdrawal - Rash, n patients", "setting": "Safety population, N = 4089", "result": 3}, {"measurement": "Study drug-related TEAE leading to study drug withdrawal - Skin and subcutaneous disorders (SOC), % patients", "setting": "Safety population, N = 4089", "result": "(0.4) %"}, {"measurement": "Study drug-related TEAE leading to study drug withdrawal - Skin and subcutaneous disorders (SOC), n patients", "setting": "Safety population, N = 4089", "result": 16}, {"measurement": "Study drug-related TEAE leading to study drug withdrawal - Skin odor abnormal, % patients", "setting": "Safety population, N = 4089", "result": "(0.1) %"}, {"measurement": "Study drug-related TEAE leading to study drug withdrawal - Skin odor abnormal, n patients", "setting": "Safety population, N = 4089", "result": 3}, {"measurement": "Study drug-related TEAE leading to study drug withdrawal - Vomiting, % patients", "setting": "Safety population, N = 4089", "result": "(0.1) %"}, {"measurement": "Study drug-related TEAE leading to study drug withdrawal - Vomiting, n patients", "setting": "Safety population, N = 4089", "result": 3}, {"measurement": "Study drug-related TEAE: Arthralgia, %", "setting": "Safety population, N = 4089", "result": "(0.6) %"}, {"measurement": "Study drug-related TEAE: Diarrhea, %", "setting": "Safety population, N = 4089", "result": "(2.7) %"}, {"measurement": "Study drug-related TEAE: Dyspepsia, %", "setting": "Safety population, N = 4089", "result": "(0.4) %"}, {"measurement": "Study drug-related TEAE: Eructation, %", "setting": "Safety population, N = 4089", "result": "(0.9) %"}, {"measurement": "Study drug-related TEAE: Flatulence, %", "setting": "Safety population, N = 4089", "result": "(0.8) %"}, {"measurement": "Study drug-related TEAE: Gastrointestinal disorders, %", "setting": "Safety population, N = 4089", "result": "(7.4) %"}, {"measurement": "Study drug-related TEAE: Musculoskeletal and connective tissue disorders, %", "setting": "Safety population, N = 4089", "result": "(1.4) %"}, {"measurement": "Study drug-related TEAE: Nausea, %", "setting": "Safety population, N = 4089", "result": "(0.8) %"}, {"measurement": "Subjects with at Least One TEAE", "setting": "Safety population, N = 4089", "result": "3343 (81.8%) n (%)"}, {"measurement": "TEAE Leading to Withdrawal of Study Drug, %", "setting": "Safety population, N = 4089", "result": "(7.9) %"}, {"measurement": "TEAE: Anemia, %", "setting": "Safety population, N = 4089", "result": "(4.7) %"}, {"measurement": "TEAE: Angina pectoris, %", "setting": "Safety population, N = 4089", "result": "(4.9) %"}, {"measurement": "TEAE: Arthralgia, %", "setting": "Safety population, N = 4089", "result": "(7.7) %"}, {"measurement": "TEAE: Atrial fibrillation, %", "setting": "Safety population, N = 4089", "result": "(5.3) %"}, {"measurement": "TEAE: Back pain, %", "setting": "Safety population, N = 4089", "result": "(8.2) %"}, {"measurement": "TEAE: Blood and lymphatic system disorders, %", "setting": "Safety population, N = 4089", "result": "(7.9) %"}, {"measurement": "TEAE: Bronchitis, %", "setting": "Safety population, N = 4089", "result": "(7.5) %"}, {"measurement": "TEAE: Cardiac disorders, %", "setting": "Safety population, N = 4089", "result": "(22.3) %"}, {"measurement": "TEAE: Cataract, %", "setting": "Safety population, N = 4089", "result": "(5.7) %"}, {"measurement": "TEAE: Chest pain, %", "setting": "Safety population, N = 4089", "result": "(6.7) %"}, {"measurement": "TEAE: Constipation, %", "setting": "Safety population, N = 4089", "result": "(5.4) %"}, {"measurement": "TEAE: Cough, %", "setting": "Safety population, N = 4089", "result": "(5.9) %"}, {"measurement": "TEAE: Diabetes mellitus, %", "setting": "Safety population, N = 4089", "result": "(4.1) %"}, {"measurement": "TEAE: Diarrhea, %", "setting": "Safety population, N = 4089", "result": "(9.0) %"}, {"measurement": "TEAE: Dizziness, %", "setting": "Safety population, N = 4089", "result": "(5.7) %"}, {"measurement": "TEAE: Dyspnea, %", "setting": "Safety population, N = 4089", "result": "(6.2) %"}, {"measurement": "TEAE: Edema peripheral, %", "setting": "Safety population, N = 4089", "result": "(6.5) %"}, {"measurement": "TEAE: Eye disorders, %", "setting": "Safety population, N = 4089", "result": "(11.7) %"}, {"measurement": "TEAE: Fall, %", "setting": "Safety population, N = 4089", "result": "(3.6) %"}, {"measurement": "TEAE: Fatigue, %", "setting": "Safety population, N = 4089", "result": "(5.6) %"}, {"measurement": "TEAE: Gastroesophageal reflux disease, %", "setting": "Safety population, N = 4089", "result": "(3.0) %"}, {"measurement": "TEAE: Gastrointestinal disorders, %", "setting": "Safety population, N = 4089", "result": "(33.0) %"}, {"measurement": "TEAE: General disorders and administration site conditions, %", "setting": "Safety population, N = 4089", "result": "(25.2) %"}, {"measurement": "TEAE: Gout, %", "setting": "Safety population, N = 4089", "result": "(4.2) %"}, {"measurement": "TEAE: Headache, %", "setting": "Safety population, N = 4089", "result": "(4.2) %"}, {"measurement": "TEAE: Hypertension, %", "setting": "Safety population, N = 4089", "result": "(7.8) %"}, {"measurement": "TEAE: Infections and infestations, %", "setting": "Safety population, N = 4089", "result": "(44.6) %"}, {"measurement": "TEAE: Influenza, %", "setting": "Safety population, N = 4089", "result": "(6.4) %"}, {"measurement": "TEAE: Injury, poisoning, and procedural complications, %", "setting": "Safety population, N = 4089", "result": "(18.3) %"}, {"measurement": "TEAE: Insomnia, %", "setting": "Safety population, N = 4089", "result": "(3.0) %"}, {"measurement": "TEAE: Metabolism and nutrition disorders, %", "setting": "Safety population, N = 4089", "result": "(23.3) %"}, {"measurement": "TEAE: Muscle spasms, %", "setting": "Safety population, N = 4089", "result": "(2.5) %"}, {"measurement": "TEAE: Musculoskeletal and connective tissue disorders, %", "setting": "Safety population, N = 4089", "result": "(35.9) %"}, {"measurement": "TEAE: Musculoskeletal pain, %", "setting": "Safety population, N = 4089", "result": "(4.3) %"}, {"measurement": "TEAE: Myalgia, %", "setting": "Safety population, N = 4089", "result": "(3.3) %"}, {"measurement": "TEAE: Nasopharyngitis, %", "setting": "Safety population, N = 4089", "result": "(7.7) %"}, {"measurement": "TEAE: Nausea, %", "setting": "Safety population, N = 4089", "result": "(4.6) %"}, {"measurement": "TEAE: Nervous system disorders, %", "setting": "Safety population, N = 4089", "result": "(24.6) %"}, {"measurement": "TEAE: Non-cardiac chest pain, %", "setting": "Safety population, N = 4089", "result": "(3.9) %"}, {"measurement": "TEAE: Osteoarthritis, %", "setting": "Safety population, N = 4089", "result": "(5.9) %"}, {"measurement": "TEAE: Pain in extremity, %", "setting": "Safety population, N = 4089", "result": "(5.7) %"}, {"measurement": "TEAE: Pneumonia, %", "setting": "Safety population, N = 4089", "result": "(6.4) %"}, {"measurement": "TEAE: Psychiatric disorders, %", "setting": "Safety population, N = 4089", "result": "(9.1) %"}, {"measurement": "TEAE: Respiratory, thoracic, and mediastinal disorders, %", "setting": "Safety population, N = 4089", "result": "(24.2) %"}, {"measurement": "TEAE: Sinusitis, %", "setting": "Safety population, N = 4089", "result": "(4.1) %"}, {"measurement": "TEAE: Type 2 diabetes mellitus, %", "setting": "Safety population, N = 4089", "result": "(3.6) %"}, {"measurement": "TEAE: Vascular disorders, %", "setting": "Safety population, N = 4089", "result": "(17.3) %"}, {"measurement": "Ventricular extrasystoles TEAE, Event Rate", "setting": "Safety population, N = 4089", "result": 0.7, "unit": "%"}, {"measurement": "Ventricular extrasystoles TEAE, Number of Subjects", "setting": "Safety population, N = 4089", "result": 27}, {"measurement": "Ventricular fibrillation TEAE, Event Rate", "setting": "Safety population, N = 4089", "result": 0.0, "unit": "%"}, {"measurement": "Ventricular fibrillation TEAE, Number of Subjects", "setting": "Safety population, N = 4089", "result": 0}, {"measurement": "Ventricular tachycardia TEAE, Event Rate", "setting": "Safety population, N = 4089", "result": 0.3, "unit": "%"}, {"measurement": "Ventricular tachycardia TEAE, Number of Subjects", "setting": "Safety population, N = 4089", "result": 12}, {"measurement": "TEAE class GI disorders, patients", "setting": "[1]", "result": 37.4, "unit": "%"}, {"measurement": "TEAE class general disorders and administration site conditions, patients", "setting": "[1]", "result": 26.3, "unit": "%"}, {"measurement": "TEAE class musculoskeletal and connective tissue disorders, patients", "setting": "[1]", "result": 41.2, "unit": "%"}, {"measurement": "TEAE class nervous system disorders, patients", "setting": "[1]", "result": 23.7, "unit": "%"}, {"measurement": "TEAE class respiratory, thoracic, and mediastinal disorders, patients", "setting": "[1]", "result": 27.5, "unit": "%"}]}
